Laboratory results reported in PMC6835155, “Lessons from LIMK1 enzymology and their impact on inhibitor design” (Biochemical Journal, 2019).

Experiments:
LIMK2KD = target: T1, LIMK2KD (Homo sapiens, UniProt P53671); assay: Differential (dynamic) scanning fluorimetry (DSF) assay, LIMK2KD; type: binding; conditions: LIMK2KD, compound 10 µM, single shot; for ΔTm at 10 µM: read-out: TM Shift LIMK2 (K)
T1 construct: The cDNA coding for LIMK2 residues 330 to 632 was PCR amplified; His6 (N, cleaved yes); made in house; host or cells: baculovirus; Sf9 for virus, TriEx insect cells for expression

LIMK1KD = target: T2, LIMK1KD (Homo sapiens, UniProt P53667); assay: Differential (dynamic) scanning fluorimetry (DSF) assay, LIMK1KD; type: binding; conditions: 2 µM LIMK1KD, compound 10 µM, single shot; for ΔTm at 10 µM: read-out: TM Shift LIMK1 (K)
T2 construct: His6 (N, cleaved yes); made in house; host or cells: baculovirus; Sf9 for virus, TriEx insect cells for expression
T2 sequence (P53667 330-637): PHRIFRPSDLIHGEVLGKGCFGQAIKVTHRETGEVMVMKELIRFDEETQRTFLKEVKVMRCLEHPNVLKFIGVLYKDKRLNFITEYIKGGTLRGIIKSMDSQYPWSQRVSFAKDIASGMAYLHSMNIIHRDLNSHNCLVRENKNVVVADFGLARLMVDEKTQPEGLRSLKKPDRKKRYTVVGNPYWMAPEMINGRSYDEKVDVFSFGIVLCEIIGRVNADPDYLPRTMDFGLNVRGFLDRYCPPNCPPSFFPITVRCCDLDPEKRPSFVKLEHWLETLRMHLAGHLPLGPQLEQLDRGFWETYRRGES

T1 sequence (P53671 330-632): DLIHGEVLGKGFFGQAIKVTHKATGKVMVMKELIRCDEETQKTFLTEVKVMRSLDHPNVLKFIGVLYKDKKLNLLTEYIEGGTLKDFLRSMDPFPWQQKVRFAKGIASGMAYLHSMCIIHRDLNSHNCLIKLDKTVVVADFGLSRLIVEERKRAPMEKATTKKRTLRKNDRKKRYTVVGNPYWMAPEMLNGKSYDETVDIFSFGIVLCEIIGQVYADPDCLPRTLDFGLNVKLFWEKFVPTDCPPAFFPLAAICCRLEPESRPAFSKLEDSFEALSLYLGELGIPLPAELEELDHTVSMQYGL

Which results are given for O=C1NC(=O)C(=Cc2ccc(-c3ccc(F)cc3)o2)S1 (stereo in doubt) [CAY10505]?
TM Shift LIMK2 (K) (LIMK2KD): 2.3 K; TM Shift LIMK1 (K) (LIMK1KD): 0.7 K

What does the source list for Cn1cnc(N)c2ncnc1-2 [3-Methyladenine]?
ΔTm at 10 µM (LIMK2KD): 0.5 °C; ΔTm at 10 µM (LIMK1KD): 0.4 °C

Which “TM Shift LIMK2 (K)” value (LIMK2KD) does the source give for CCc1ccc(/C=C2/SC(=S)NC2=O)cc1 [10058-F4] here?
Its value is 1.7 K.

What about the “TM Shift LIMK1 (K)” value (LIMK1KD) of the same compound?
The value was 0.3 K.

What does the source list for COc1cc(O)c2c(c1)/C=C/C[C@H](O)[C@H](O)C(=O)/C=C\C[C@H](C)OC2=O [(5Z)-7-Oxozeaenol]?
TM Shift LIMK2 (K) (LIMK2KD): 0.7 K; TM Shift LIMK1 (K) (LIMK1KD): 2.8 K

How did the “TM Shift LIMK2 (K)” value (LIMK2KD) turn out when Cc1nc(NC(=O)N2CCC[C@H]2C(N)=O)sc1-c1csc(C(C)(C)C)n1 [A66] was run?
Its value is 1.0 K.

And the “TM Shift LIMK1 (K)” value (LIMK1KD)?
The value was 0.0 K.

With Cc1[nH]nc2ccc(-c3cncc(OC[C@@H](N)Cc4ccccc4)c3)cc12 [A-674563] as the compound, how does the “TM Shift LIMK2 (K)” value (LIMK2KD) read?
The value was 0.2 K.

What about the “TM Shift LIMK1 (K)” value (LIMK1KD) of the same compound?
Its value is 0.8 K.

With N#Cc1c(O)c2c(-c3ccc(-c4ccccc4O)cc3)csc2[nH]c1=O [A-769662] as the compound, how does the “TM Shift LIMK2 (K)” value (LIMK2KD) read?
The value was 2.4 K.

What about the “TM Shift LIMK1 (K)” value (LIMK1KD) of the same compound?
Its value is 0.9 K.

How did the ΔTm at 10 µM (LIMK2KD) turn out when CCN1CCN(Cc2ccc(-c3cc4c(N[C@H](C)c5ccccc5)ncnc4[nH]3)cc2)CC1 [AEE788 (NVP-AEE788)] was run?
Its ΔTm at 10 µM is 4.5 °C.

And the ΔTm at 10 µM (LIMK1KD)?
The ΔTm at 10 µM was 4.7 °C.

N#CC(C#N)=Cc1ccc(O)c(O)c1 [AG-18] was tested. Which “TM Shift LIMK2 (K)” value (LIMK2KD) did it give?
The value was 0.6 K.

What about the “TM Shift LIMK1 (K)” value (LIMK1KD) of the same compound?
The value was 0.1 K.

Which results are given for N#C/C(=C\c1ccc(O)c(O)c1)C(=O)NCc1ccccc1 [AG-490 (Tyrphostin B42), Tyrphostin B42]?
TM Shift LIMK2 (K) (LIMK2KD): 0.9 K; TM Shift LIMK1 (K) (LIMK1KD): 0.7 K

With CC(C)(C)c1cc(C=C(C#N)C#N)cc(Br)c1O [AG-1024] as the compound, how does the “TM Shift LIMK2 (K)” value (LIMK2KD) read?
Its value is 4.3 K.

And the “TM Shift LIMK1 (K)” value (LIMK1KD)?
The value was 2.5 K.

Which results are given for COc1cc2ncnc(Nc3cccc(Cl)c3)c2cc1OC [AG-1478 (Tyrphostin AG-1478), Tyrphostin AG-1478]?
ΔTm at 10 µM (LIMK2KD): -0.2 °C; ΔTm at 10 µM (LIMK1KD): 1.4 °C

COc1ccc2c(Oc3ccc(NC(=O)c4c(C)n(CC(C)(C)O)n(-c5ccccc5)c4=O)nc3)ccnc2c1 [AMG-458] was tested. Which “TM Shift LIMK2 (K)” value (LIMK2KD) did it give?
The value was -0.8 K.

What about the “TM Shift LIMK1 (K)” value (LIMK1KD) of the same compound?
The value was 1.3 K.

Which results are given for Cc1csc(-c2nnc(Nc3ccc(Oc4ncccc4-c4ccnc(N)n4)cc3)c3ccccc23)c1 [AMG-900]?
ΔTm at 10 µM (LIMK2KD): -2.1 °C; ΔTm at 10 µM (LIMK1KD): 0.5 °C

What does the source list for COc1cc(N2CCC(N3CCN(C)CC3)CC2)ccc1Nc1ncc(Cl)c(Nc2ccccc2P(C)(C)=O)n1 [AP26113]?
ΔTm at 10 µM (LIMK2KD): 0.1 °C; ΔTm at 10 µM (LIMK1KD): 3.4 °C

How did the “TM Shift LIMK2 (K)” value (LIMK2KD) turn out when COc1ccc(CNC(=O)Nc2ncc([N+](=O)[O-])s2)cc1 [AR-A014418] was run?
Its value is 1.0 K.

What about the “TM Shift LIMK1 (K)” value (LIMK1KD) of the same compound?
Its value is 1.4 K.

Which results are given for O=C1NC(=O)/C(=C/c2ccc(-c3ccc(F)cc3O)o2)S1 [AS-252424]?
TM Shift LIMK2 (K) (LIMK2KD): 3.0 K; TM Shift LIMK1 (K) (LIMK1KD): -0.1 K

With O=C1NC(=O)/C(=C/c2ccc3c(c2)OC(F)(F)O3)S1 [AS-604850] as the compound, how does the “TM Shift LIMK2 (K)” value (LIMK2KD) read?
The value was 2.2 K.

What about the “TM Shift LIMK1 (K)” value (LIMK1KD) of the same compound?
The value was 0.3 K.

What does the source list for COc1cc(N2CCC(N3CCN(C)CC3)CC2)ccc1Nc1ncnc(Nc2ccccc2S(=O)(=O)C(C)C)n1 [ASP3026]?
ΔTm at 10 µM (LIMK2KD): 1.4 °C; ΔTm at 10 µM (LIMK1KD): 3.7 °C

Which ΔTm at 10 µM (LIMK2KD) does the source give for C=CC(=O)Nc1ccc2ncnc(Nc3ccc(OCc4cccc(F)c4)c(Cl)c3)c2c1 [AST-1306] here?
Its ΔTm at 10 µM is 0.1 °C.

And the ΔTm at 10 µM (LIMK1KD)?
Its ΔTm at 10 µM is 0.4 °C.

With O=C(NC1CCNCC1)c1[nH]ncc1NC(=O)c1c(Cl)cccc1Cl [AT7519] as the compound, how does the ΔTm at 10 µM (LIMK2KD) read?
Its ΔTm at 10 µM is 1.3 °C.

And the ΔTm at 10 µM (LIMK1KD)?
Its ΔTm at 10 µM is 1.2 °C.

Which “TM Shift LIMK2 (K)” value (LIMK2KD) does the source give for Clc1ccc(C2(c3ccc(-c4cn[nH]c4)cc3)CCNCC2)cc1 [AT7867] here?
Its value is 1.4 K.

And the “TM Shift LIMK1 (K)” value (LIMK1KD)?
Its value is 0.9 K.

With O=C(Nc1c[nH]nc1-c1nc2ccc(CN3CCOCC3)cc2[nH]1)NC1CC1 [AT9283] as the compound, how does the ΔTm at 10 µM (LIMK2KD) read?
The ΔTm at 10 µM was 4 °C.

What about the ΔTm at 10 µM (LIMK1KD) of the same compound?
Its ΔTm at 10 µM is 9 °C.

With C=CC(=O)Nc1cccc(Nc2nc(Nc3ccc(OCCOC)cc3)ncc2F)c1 [AVL-292] as the compound, how does the ΔTm at 10 µM (LIMK2KD) read?
Its ΔTm at 10 µM is 3.1 °C.

And the ΔTm at 10 µM (LIMK1KD)?
Its ΔTm at 10 µM is 3.8 °C.

What does the source list for C[C@@H]1COCCN1c1cc(C2(S(C)(=O)=O)CC2)nc(-c2cccc3[nH]ccc23)n1 [AZ20]?
TM Shift LIMK2 (K) (LIMK2KD): -0.8 K; TM Shift LIMK1 (K) (LIMK1KD): 0.8 K

Which ΔTm at 10 µM (LIMK2KD) does the source give for COc1cc(OC2CCN(C)CC2)ccc1Nc1ncc2c(n1)n(C1CCCC1)c(=O)n2C [AZ3146] here?
The ΔTm at 10 µM was 0 °C.

And the ΔTm at 10 µM (LIMK1KD)?
Its ΔTm at 10 µM is 0.4 °C.

With Cc1ccc(NC(=O)c2cccc(C(C)(C)C#N)c2)cc1Nc1ccc2ncn(C)c(=O)c2c1 [AZ 628] as the compound, how does the “TM Shift LIMK2 (K)” value (LIMK2KD) read?
The value was 1.2 K.

What about the “TM Shift LIMK1 (K)” value (LIMK1KD) of the same compound?
The value was 0.3 K.

For Cc1cc(Nc2nc(N[C@@H](C)c3ccc(F)cc3)c(C#N)cc2F)[nH]n1 [AZ 960], which ΔTm at 10 µM (LIMK2KD) is on record?
The ΔTm at 10 µM was 0.1 °C.

What about the ΔTm at 10 µM (LIMK1KD) of the same compound?
The ΔTm at 10 µM was 6 °C.

With N#Cc1ccc2[nH]c(O)c(-c3ccc(CN4CCOCC4)cn3)c2c1 [AZD1080] as the compound, how does the ΔTm at 10 µM (LIMK2KD) read?
Its ΔTm at 10 µM is 2.3 °C.

What about the ΔTm at 10 µM (LIMK1KD) of the same compound?
Its ΔTm at 10 µM is 0.5 °C.
